{
  "source": "patent US20230348531A1",
  "about": "“ISOLATION AND PURIFICATION OF BACTERIOCIN PRODUCED BY LACTOBACILLUS SAKEI AND ANTIBACTERIAL USE THEREOF AND LACTIC ACID BACTERIA USED” (Zhejiang Gongshang University, priority 2022, published 2023)",
  "origin": "cited, not measured here",
  "test_system": "gram-negative bacteria such as Escherichia coli",
  "settings": "background statement",
  "data": [
    {"substance": "Nisin", "values": [
      {"measurement": "inhibitory effect on gram-negative bacteria", "value": "no inhibitory effect"}
    ]}
  ]
}
